Consider one molecule from patent publication US20050118613A1, “Methods and kits for predicting the likelihood of successful treatment of cancer” (Oncomethylome Sciences S.A., priority 2003, published 2005).

Molecules are shown by their SMILES.

One assay has as its system stage III CRC patients. In words: Survival of stage III CRC patients treated by surgery alone or by surgery and 5-FU/leucovorin (matched cohorts), by CIMP status. Format: in vivo, human. The text has this:
A total of 891 stage III CRC cases were diagnosed at the Sir Charles Gairdner Hospital between 1985 and 1999 (14). This spans the time period during which 5-FU-based adjuvant chemotherapy was being introduced in Western Australia for the management of stage III CRC. Adjuvant chemotherapy was given to 270 (30%) patients according to the standard Mayo regimen (5-FU/leucovorin). This comprised at least two cycles of chemotherapy, and for the majority of patients the full six cycles were completed. Patients were separated into categories based on 5-year age intervals, gender, and site of tumor origin. […] Within these groups, adjuvant-treated and nontreated patients were pair-matched at random. A total cohort of 125 matched pairs was selected for DNA methylation analysis. […] All cases were diagnosed at a single pathology laboratory (Hospital and University Pathology Service/Pathcenter) associated with the Sir Charles Gairdner Hospital. This laboratory maintained relatively constant reporting practices during the 1985-1999 study period. Five cases were classified as T4 lesions, and all others were classified as T3. The study included 48 rectal, 24 sigmoid, 24 descending colon, 17 transverse colon, 47 ascending colon, and 46 cecal tumors. Four patients with rectal cancer received post-operative radiotherapy. Disease-specific survival information was obtained on all 206 patients by examination of hospital and West Australian Health Department records. The median follow-up time was 39 months (range, 1-172 months), with 119 patients (58%) dying as a result of recurrent disease by the end of the study. Survival data for 19 (9%) patients who died from other causes were censored at the time of death. It has been estimated that net migration out of the state of Western Australia is 0.4% per year, equating to approximately 1 case/year of the 206 cases investi-gated in this series. However, this rate is expected to be considerably lower for older individuals and particularly for those diagnosed with cancer. The Sir Charles Gairdner Hospital Human Research Ethics Committee gave approval for this study.
Methylation-specific PCR was used to determine the methylation status of CpG islands located within the p16 promoter (4, 5, 10, 17), the MINT-2 clone (3, 4), and the MDR1 promoter (4, 9). DNA amplification of all three CpG loci was successful for 103 matched pairs, equating to an overall success rate of approximately 90%. CIMP+ was arbitrarily defined as the presence of two or more of these sites showing methylation. Of the 206 tumors successfully analyzed in this study for CIMP+ status, the majority (83%) were sourced from formalin-fixed and paraffin-embedded archival tissue blocks. The remaining cases were in the form of unfixed tissue samples taken shortly after surgical resection and stored frozen at −80° C.
Multivariate Cox proportional hazard test with matched-pair stratification and Kaplan-Meier analyses were used to evaluate differences in survival between patient groups. Regression sensitivity was determined by analyzing the effect of unmeasured binary confounders as described by Lin et al. (20) Statistical analyses were performed using the Stata 7.0 (College Station, Tex.) software package. All Ps are two-sided.

The subject of assay [1] is stage II and III colorectal cancers. Put plainly: Survival of stage II and III colorectal cancer patients treated by surgery alone or surgery plus standard 5FU chemotherapy, by hMLH1 methylation. Format: in vivo, human. An excerpt:
The predictive value of hMLH1 methylation for survival benefit with 5FU chemotherapy was examined in a series of stage II and III colorectal cancers that had been treated by surgery alone (no chemotherapy) or by surgery plus standard 5FU chemotherapy.
The following primers were used to detect methylated hMLH1 following bisulfite conversion (utilising the MSP technique): […]

On to `O=c1[nH]cc(F)c(=O)[nH]1` [5-FU, 5-fluorouracil], for which, in the assay with stage III CRC patients (CIMP+, multivariate analysis for matched pairs, independent of MSI+ and p53 status, 95% CI 0.06-0.84, P=0.027), the “RR (relative risk), predictive value of CIMP+ for survival benefit” value is on record as 0.22. The “long-term survival benefit from 5-FU treatment” value in the assay on stage III CRC patients (CIMP- patients) is “no long-term survival benefit”. Also, the “RR (relative risk), survival benefit from 5-FU” value with stage III CRC patients (CIMP- patients, 95% CI 0.62-1.49, P=0.86) came to 0.96. In the assay on stage III CRC patients (all stage III CRC patients, surgery + 5-FU vs surgery alone, 95% CI 0.43-0.90, P=0.012), the “RR (relative risk), survival benefit associated with the use of 5-FU” value was determined as 0.62. The “survival of CIMP+ patients compared to CIMP-” value in the assay on stage III CRC patients (cohort treated with surgery plus 5-FU) is “trend for better survival”. Besides, the “patients who died from recurrent CRC despite the use of 5-FU” value in the assay on stage III CRC patients (patients with CIMP+ tumors) is on record as “approximately 40%”. Also, the “survival of patient group” value was 10/10 (100%) P = 0.097 in assay [1] (hMLH1 methylated, chemotherapy (10/10), P = 0.097 vs no chemotherapy) and 15/22 (68%) P = NS in assay [1] (hMLH1 non-methylated, chemotherapy (15/22), P = NS vs no chemotherapy). Moreover, the “impact of chemotherapy on overall survival” value in assay [1] (patients with methylated hMLH1 gene, chemotherapy vs no chemotherapy (FIG. 3C)) is reported as “positive impact”.
